Here are results for 17 compounds from patent publication US7179823B1, “5-membered n-heterocyclic compounds with hypoglycemic and hypolipidemic activity” (Takeda Pharmaceutical Company Limited, priority 1999, dated 2007).

Broadly, the melting point is the temperature of the solid-liquid transition.

Data set [1] concerns KKA^y mice. The data set can be described thus: Hypoglycemic and hypolipidemic actions in mice. Format: in vivo. As to conditions: four days; for inhibition in vivo at 0.001 % / inhibition in vivo at 0.005 % / inhibition in vivo at 0.01 %: Mus musculus, po, 96 h; for inhibition in vivo at 0.005 %: 0.005% in powdery diet; for inhibition in vivo at 0.01 %: 0.01% in powdery diet. From the text: Hypoglycemic and Hypolipidemic Actions in Mice
Test compounds were mixed in a powdery diet (CE-2, Japan Clea) at the concentration of 0.01% (compounds of Examples 12, 30, 89, 186), 0.005% (compounds of Examples 7, 80, 82, 181, 182, 184, 256, 262, 283), 0.001% (compounds of Examples 9, 104, 110, 155, 156, 160, 167, 169, 172, 174, 176, 189), or 0.0003% (compounds of Examples 38, 40, 44), and freely given to KKA^y mice (9 to 12 weeks old, 5 mice in a group), a model of obese and type 2 diabetes mellitus, for four days. During this period, water was given freely. Blood was sampled from orbital venous plexus, and glucose and triglyceride levels in plasma separated from blood were determined enzymatically using L type Wako Glu2 (Wako Pure Chemical Industries, Ltd.) or L type Wako TG•H (Wako Pure Chemical Industries, Ltd.), respectively.
In the Table, the value of each treatment group is represented as percent reduction compared with the non-treatment group.

Data set [2] deals with KKA^y mice. The data set can be described thus: Total cholesterol lowering action and plasma anti-arteriosclerosis index-enhancing action in mice. Format: in vivo. As to conditions: four days, non-treatment group taken as 100%; for change in vivo at 0.001 % / inhibition in vivo at 0.001 % / change in vivo at 0.005 % / inhibition in vivo at 0.005 %: Mus musculus, po, 96 h; for change in vivo at 0.001 % / change in vivo at 0.005 %: read-out: Plasma anti-arteriosclerosis index-enchancing action (%); for change in vivo at 0.005 % / inhibition in vivo at 0.005 %: 0.005% in powdery diet. The text has this:
Total Cholesterol Lowering Action and Plasma Anti-Arteriosclerosis Index-Enhancing Action in Mice
Test compounds were mixed in a powdery diet (CE-2, Japan Clea) at the concentration of 0.01% (compounds of Examples 12, 30, 89), 0.005% (compounds of Examples 38, 40, 44, 181, 184, 262, 283), or 0.001% (compounds of Examples 9, 156, 167, 172, 174, 176, 189), and freely given to KKA^y mice (9 to 12 weeks old, 5 mice per group), a model of obese and type 2 diabetes mellitus, for four days. During this period, water was given freely. Blood was sampled from orbital venous plexus and plasma was separated. Total cholesterol levels were determined by using L type Wako Cholesterol (Wako Pure Chemical Industries, Ltd.). Precipitation reagent for apoB containing lipoprotein was added to a part of the plasma to precipitate non-HDL lipoprotein, and cholesterol (HDL cholesterol) in the resulting supernatant was determined. The plasma anti-arteriosclerosis index [(HDL cholesterol/total cholesterol)×100] was calculated by using these cholesterol levels.
In the Table, “Total cholesterol lowering action (%)” represents the percent reduction (%) of total cholesterol level in the treatment group, when the total cholesterol level in the non-treatment group is taken as 100%. “Plasma anti-arteriosclerosis index-enhancing action (%)” represents the percent increase (%) of plasma anti-arteriosclerosis index in the treatment group, when the plasma anti-arteriosclerosis index in the non-treatment group is taken as 100%.

Where [3] appears, read: 0.001% in powdery diet, percent reduction of plasma glucose compared with the non-treatment group, read-out: Hypoglycemic action (%).
The mark [4] stands for this setting: 0.001% in powdery diet, percent reduction of plasma triglyceride compared with the non-treatment group, read-out: Hypolipidemic action (%).
Setting [5] is: 0.001% in powdery diet, percent increase of [(HDL cholesterol/total cholesterol)×100].
The mark [6] stands for this setting: 0.001% in powdery diet, percent reduction of plasma total cholesterol.
Setting [7] is: percent increase of [(HDL cholesterol/total cholesterol)×100].
The mark [8] stands for this setting: percent reduction of plasma total cholesterol.
The mark [9] stands for this setting: percent reduction of plasma glucose compared with the non-treatment group, read-out: Hypoglycemic action (%).
The mark [10] stands for this setting: percent reduction of plasma triglyceride compared with the non-treatment group, read-out: Hypolipidemic action (%).

Read-outs that look alike come from different tables or passages of the source.

Turning to `CCOc1nn(Cc2ccc(OCc3nc(-c4ccccc4)oc3C)cc2)cc1CCC(=O)O` [Example 155, 3-[3-ethoxy-1-[4-(5-methyl-2-phenyl-4-oxazolylmethoxy)benzyl]-1H-pyrazol-4-yl]propionic acid], the inhibition in vivo at 0.001 % in data set [1] (setting [3]) amounted to 49%; in data set [1] (setting [4]), 56%.

For the compound `Cc1oc(-c2ccccc2)nc1COc1ccc(Cn2cc(CCC(=O)O)c(OCc3ccccc3)n2)cc1` [Example 160, 3-[3-benzyloxy-1-[4-(5-methyl-2-phenyl-4-oxazolylmethoxy)benzyl]-1H-pyrazol-4-yl]propionic acid], the melting point lay in the range of 108 to 109 °C. In addition, the inhibition in vivo at 0.001 % in data set [1] (setting [3]) turned out to be 54%. For the same compound, the inhibition in vivo at 0.001 % in data set [1] (setting [4]) stood at 57%.

`CCOc1nn(Cc2ccc(OCc3nc(-c4cccs4)oc3C)cc2)cc1CCC(=O)O` [Example 189, 3-[3-ethoxy-1-[4-[5-methyl-2-(2-thienyl)-4-oxazolylmethoxy]benzyl]-1H-pyrazol-4-yl]propionic acid]: in data set [2] (setting [5]), the change in vivo at 0.001 % came out at 20%. For the same compound, the inhibition in vivo at 0.001 % in data set [2] (setting [6]) was determined as 21%; in data set [1] (setting [3]), 44%; in data set [1] (setting [4]), 75%.

On to `CCOc1nn(Cc2ccc(OCc3nc(-c4ccco4)oc3C)c(OC)c2)cc1CCC(=O)O` [Example 174, 3-[3-ethoxy-1-[4-[2-(2-furyl)-5-methyl-4-oxazolylmethoxy]-3-methoxybenzyl]-1H-pyrazol-4-yl]propionic acid], for which the change in vivo at 0.001 % in data set [2] (setting [5]) was 10%. The inhibition in vivo at 0.001 % in data set [2] (setting [6]) stood at 19%; in data set [1] (setting [3]) it was 40%; in data set [1] (setting [4]), 52%.

Consider `CCOc1nn(Cc2ccc(OCc3nc(-c4ccco4)oc3C)cc2)cc1CCC(=O)O` [Example 167, 3-[3-ethoxy-1-[4-[2-(2-furyl)-5-methyl-4-oxazolylmethoxy]benzyl]-1H-pyrazol-4-yl]propionic acid], for which the change in vivo at 0.001 % in data set [2] (setting [5]) stood at 9%. The inhibition in vivo at 0.001 % in data set [2] (setting [6]) is 19%; in data set [1] (setting [3]), 48%; in data set [1] (setting [4]), 60%.

As for `CCOc1nn(Cc2ccc(OCc3nc(-c4cccs4)oc3C)c(OC)c2)cc1CCC(=O)O` [Example 176], the “Plasma anti-arteriosclerosis index-enchancing action (%)” value in data set [2] (setting [5]) is 11%. Further, the “Total cholesterol lowering action (%)” value in data set [2] (setting [6]) stood at 23%. Besides, the “Hypoglycemic action (%)” value in data set [1] (0.001% in powdery diet, percent reduction of plasma glucose compared with the non-treatment group) is reported as 40%. In addition, the “Hypolipidemic action (%)” value in data set [1] (0.001% in powdery diet, percent reduction of plasma triglyceride compared with the non-treatment group) was determined as 66%.

As for `CCOc1nn(Cc2ccc(OCc3nc(-c4ccccc4)oc3C)nc2)cc1CCC(=O)O` [Example 184, 3-[3-ethoxy-1-[2-(5-methyl-2-phenyl-4-oxazolylmethoxy)-5-pyridylmethyl]-1H-pyrazol-4-yl]propionic acid], in data set [2] (setting [7]), the change in vivo at 0.005 % was 17%. Moreover, the inhibition in vivo at 0.005 % in data set [2] (setting [8]) came to 27%; in data set [1] (setting [9]), 56%; in data set [1] (setting [10]), 82%.

With `CCOc1nn(Cc2ccc(OCc3coc(-c4ccccc4)n3)cc2)cc1CCC(=O)O` [Example 186, 3-[3-ethoxy-1-[4-(2-phenyl-4-oxazolylmethoxy)benzyl]-1H-pyrazol-4-yl]propionic acid], the inhibition in vivo at 0.01 % in data set [1] (setting [9]) turned out to be 57%; in data set [1] (setting [10]) it was 78%.

Turning to `Cc1oc(-c2ccco2)nc1COc1ccc(Cn2cc(CCC(=O)O)c(OCc3ccccc3)n2)cc1` [Example 169, 3-[3-benzyloxy-1-[4-[2-(2-furyl)-5-methyl-4-oxazolylmethoxy]benzyl]-1H-pyrazol-4-yl]propionic acid], the inhibition in vivo at 0.001 % in data set [1] (setting [3]) was 48%; in data set [1] (setting [4]) it was 39%.

As to `CCOc1nn(Cc2ccc(OCc3nc(-c4ccccc4)sc3C)cc2)cc1CCC(=O)O` [Example 182, 3-[3-ethoxy-1-[4-(5-methyl-2-phenyl-4-thiazolylmethoxy)benzyl]-1H-pyrazol-4-yl]propionic acid], the inhibition in vivo at 0.005 % amounted to 34% in data set [1] (setting [9]) and 12% in data set [1] (setting [10]).

Regarding `CCCOc1nn(Cc2ccc(OCc3nc(-c4ccccc4)oc3C)cc2)cc1CCC(=O)O` [Example 156, 3-[1-[4-(5-methyl-2-phenyl-4-oxazolylmethoxy)benzyl]-3-propyloxy-1H-pyrazol-4-yl]propionic acid], the change in vivo at 0.001 % in data set [2] (setting [5]) worked out at 15%. Also, the inhibition in vivo at 0.001 % in data set [2] (setting [6]) was 20%; in data set [1] (setting [3]), 45%; in data set [1] (setting [4]), 80%.

Consider `CCOc1nn(Cc2ccc(OCc3nc(-c4ccccc4)oc3C)c(OC)c2)cc1CCC(=O)O` [Example 172, 3-[3-ethoxy-1-[3-methoxy-4-(5-methyl-2-phenyl-4-oxazolylmethoxy)benzyl]-1H-pyrazol-4-yl]propionic acid], for which, in data set [2] (setting [5]), the change in vivo at 0.001 % turned out to be 11%. Besides, the inhibition in vivo at 0.001 % in data set [2] (setting [6]) worked out at 20%; in data set [1] (setting [3]), 42%; in data set [1] (setting [4]), 62%.

Compound `CCOc1nn(Cc2ccnc(OCc3nc(-c4ccco4)oc3C)c2)cc1CCC(=O)O` [Example 234, 3-[3-ethoxy-1-[2-[2-(2-furyl)-5-methyl-4-oxazolylmethoxy]-4-pyridylmethyl]-1H-pyrazol-4-yl]propionic acid] displayed a melting point of 138 to 139 °C.

For the compound `COC(=O)Cc1cn(Cc2ccc(OCc3ccccc3)cc2)nc1-c1ccc(F)cc1` [Example 318, methyl [1-(4-benzyloxybenzyl)-3-(4-fluorophenyl)-1H-pyrazol-4-yl]acetate], the melting point lay in the range of 58 to 59 °C.

With `O=C(O)c1cn(Cc2ccc(Oc3ccccc3)cc2)nc1OCc1ccc(Oc2ccccc2)cc1` [Example 320, 1-(4-phenoxybenzyl)-3-(4-phenoxybenzyloxy)-1H-pyrazole-4-carboxylic acid], the melting point fell in the range of 141 to 142 °C.

Turning to `CCOc1nn(Cc2ccc(OCc3csc(-c4ccccc4)n3)cc2)cc1CCC(=O)O` [Example 181, 3-[3-ethoxy-1-[4-(2-phenyl-4-thiazolylmethoxy)benzyl]-1H-pyrazol-4-yl]propionic acid], in data set [2] (setting [7]), the change in vivo at 0.005 % was 21%. The inhibition in vivo at 0.005 % in data set [2] (setting [8]) came to 25%; in data set [1] (setting [9]), 56%; in data set [1] (setting [10]), 63%.

`CCOc1nn(Cc2ccc(OCc3ccc(-c4ccccc4)cn3)cc2)cc1CCC(=O)O` [Example 250, 3-[3-ethoxy-1-[4-(5-phenyl-2-pyridylmethoxy)benzyl]-1H-pyrazol-4-yl]propionic acid] returned a melting point of 127 to 128 °C.
